This note sets out measurements from the supplement of paper PMC11208160.
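Also: IS621 bridge recombinase in Escherichia coli cells against a fixed T5 target plasmid.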

The nature of the series: recombinant UMI read abundance after kanamycin selection (control-corrected) (log10(CPM+1)); higher = more efficient recombination; extreme values may be limits of the assay; sequences stand for … in AGTGCAGAGAAAATCGGCCAGTTTTCTCTGCCTGCAGTCCGCATGCCGTGGGACCCCTTGGGTTCTAACCTGTTGCCTAGATTTATGCAGCGGACTGCCTTTCTCCCAAAGTGATAAACCGG…AGGTTGGTTTCACT; site = the 11-nt donor. Summed up:
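Values, expressed as log10(CPM+1), derive from recombinant UMI counts converted to CPM, averaged across replicates and scaled by control-derived factors. Plating was with IPTG (0.07 mM) plus kanamycin or unselected, two replicates each. The screen pooled donor and donor-binding-loop pairs for the IS621 bridge recombinase in Escherichia coli.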
“CAGTCGACATGGACCGGTTTTCCCGGTAATCCGTATTTGCG (site CAGTCGACTCA)”: the “recombinant UMI read abundance (log10)” value was 0.
Under “CAGTCGACATGGACCGGTTTTCCCGGTAATCCGTATTTGCG (site CAGTCGACTCC)” stands 0; under “CAGTCGACATGGACCGGTTTTCCCGGTAATCCGTATTTGCG (site CAGTCGACTCG)”, 0.869; under “CAGTCGACATGGACCGGTTTTCCCGGTAATCCGTATTTGCG (site CAGTCGACTCT)”, 0.00924.
For “CAGTCGACATGGACCGGTTTTCCCGGTAATCCGTATTTGGC (site CAGTCGACTAC)”, the “recombinant UMI read abundance (log10)” value was determined as 0.105.
Take “CAGTCGACATGGACCGGTTTTCCCGGTAATCCGTATTTGGC (site CAGTCGACTCC)”: the “recombinant UMI read abundance (log10)” value came out at 0.00601.
Under “CAGTCGACATGGACCGGTTTTCCCGGTAATCCGTATTTGGC (site CAGTCGACTGC)” stands 1.37.
Consider “CAGTCGACATGGACCGGTTTTCCCGGTAATCCGTATTTGGC (site CAGTCGACTTC)”, for which the “recombinant UMI read abundance (log10)” value came out at 0.0416.
Take “CAGTCGCCATGGACCGGTTTTCCCGGTAATCCGTATTTGGG (site CAGTCGACTCC)”: the “recombinant UMI read abundance (log10)” value is 0.0111.
Consider “CAGTCGCCATGGACCGGTTTTCCCGGTAATCCGTATTTGGG (site CAGTCGCCTCC)”, for which the “recombinant UMI read abundance (log10)” value came to 0.0028.
In the case of “CAGTCGCCATGGACCGGTTTTCCCGGTAATCCGTATTTGGG (site CAGTCGGCTCC)”, the “recombinant UMI read abundance (log10)” value worked out at 0.0208.
Next, “CAGTCGCCATGGACCGGTTTTCCCGGTAATCCGTATTTGGG (site CAGTCGTCTCC)”: 0; “CAGTCGGCATGGACCGGTTTTCCCGGTAATCCGTATTTGCT (site CAGTCGGCTAG)”: 0.438.
For “CAGTGGACATGGACCGGTTTTCCCGGTAATCCGTATTTGTG (site CAGTGGACTCA)”, the “recombinant UMI read abundance (log10)” value worked out at 1.57.
Consider “CAGTTTACATGGACCGGTTTTCCCGGTAATCCGTATTTGCT (site CAGTTTACTAG)”, for which the “recombinant UMI read abundance (log10)” value is 2.07.
With “CAGTTTACATGGACCGGTTTTCCCGGTAATCCGTATTTGCT (site CCGTTTACTAG)”, the “recombinant UMI read abundance (log10)” value came to 0.978.
On to “CAGTTTACATGGACCGGTTTTCCCGGTAATCCGTATTTGCT (site CGGTTTACTAG)”, for which the “recombinant UMI read abundance (log10)” value was 0.
As to “CAGTTTACATGGACCGGTTTTCCCGGTAATCCGTATTTGCT (site CTGTTTACTAG)”, the “recombinant UMI read abundance (log10)” value was 0.662.
Turning to “CATACACCATGGACCGGTTTTCCCGGTAATCCGTATTTGTA (site CATACACCTTA)”, the “recombinant UMI read abundance (log10)” value was 0.00749.
With “CATACAGCATGGACCGGTTTTCCCGGTAATCCGTATTTGTG (site CATACAGCTCA)”, the “recombinant UMI read abundance (log10)” value amounted to 1.18.
With “CATAGCGCATGGACCGGTTTTCCCGGTAATCCGTATTTGTC (site CATAGCGCTGA)”, the “recombinant UMI read abundance (log10)” value came to 2.99.
In the case of “CATAGTCCATGGACCGGTTTTCCCGGTAATCCGTATTTGAA (site CATAGTCCTTT)”, the “recombinant UMI read abundance (log10)” value amounted to 0.981.
“CATCAGTCATGGACCGGTTTTCCCGGTAATCCGTATTTGGT (site CATCAGTCTAC)”: the “recombinant UMI read abundance (log10)” value turned out to be 2.17.
For the sequence “CATCCATCATGGACCGGTTTTCCCGGTAATCCGTATTTGGG (site CATCCATCTCC)”, the “recombinant UMI read abundance (log10)” value is 0.0148.
Turning to “CATCCCTCATGGACCGGTTTTCCCGGTAATCCGTATTTGTA (site CATCCCTCTTA)”, the “recombinant UMI read abundance (log10)” value was 3.33.
For the sequence “CATCGTACATGGACCGGTTTTCCCGGTAATCCGTATTTGGT (site AGAGTGGCTTA)”, the “recombinant UMI read abundance (log10)” value was determined as 0.00765.
As to “CATCTGTCATGGACCGGTTTTCCCGGTAATCCGTATTTGGG (site CATCTGTCTCC)”, the “recombinant UMI read abundance (log10)” value turned out to be 0.559.
Take “CATGACTCATGGACCGGTTTTCCCGGTAATCCGTATTTGTC (site CATGACTCTGA)”: the “recombinant UMI read abundance (log10)” value came to 1.71.
“CATGCACCATGGACCGGTTTTCCCGGTAATCCGTATTTGAC (site CATGCACCTGT)”: the “recombinant UMI read abundance (log10)” value worked out at 0.
Under “CATGCAGCATGGACCGGTTTTCCCGGTAATCCGTATTTGCT (site CAAGCAGCTAG)” stands 0.856.
In the case of “CATGCAGCATGGACCGGTTTTCCCGGTAATCCGTATTTGCT (site CACGCAGCTAG)”, the “recombinant UMI read abundance (log10)” value was found to be 1.29.
As for “CATGCAGCATGGACCGGTTTTCCCGGTAATCCGTATTTGCT (site CAGGCAGCTAG)”, the “recombinant UMI read abundance (log10)” value amounted to 0.00853.
Turning to “CATGCAGCATGGACCGGTTTTCCCGGTAATCCGTATTTGCT (site CATGCAGCTAG)”, the “recombinant UMI read abundance (log10)” value was found to be 1.97.
Next, “CATGCATCATGGACCGGTTTTCCCGGTAATCCGTATTTGCT (site CATGCATCTAG)”: 1.49; “CATGGATCATGGACCGGTTTTCCCGGTAATCCGTATTTGGA (site CATGGATCTTC)”: 2.32; “CATGTGACATGGACCGGTTTTCCCGGTAATCCGTATTTGAT (site CATGTGACTAT)”: 2.03.
Under “CATTATCCATGGACCGGTTTTCCCGGTAATCCGTATTTGCT (site AATTATCCTAG)” stands 0.352; under “CATTATCCATGGACCGGTTTTCCCGGTAATCCGTATTTGCT (site CATTATCCTAG)”, 1.59; under “CATTATCCATGGACCGGTTTTCCCGGTAATCCGTATTTGCT (site GATTATCCTAG)”, 0.
Take “CATTATCCATGGACCGGTTTTCCCGGTAATCCGTATTTGCT (site TATTATCCTAG)”: the “recombinant UMI read abundance (log10)” value was 0.
With “CATTCGCCATGGACCGGTTTTCCCGGTAATCCGTATTTGAA (site CATTCGCCTTT)”, the “recombinant UMI read abundance (log10)” value stood at 0.0116.
Under “CATTCGTCATGGACCGGTTTTCCCGGTAATCCGTATTTGGC (site CATTCGTCTGC)” stands 0.595; under “CATTGAACATGGACCGGTTTTCCCGGTAATCCGTATTTGCC (site CATTGAACTGG)”, 0; under “CATTGGACATGGACCGGTTTTCCCGGTAATCCGTATTTGAC (site AATTGGACTGT)”, 0.565.
With “CATTGGACATGGACCGGTTTTCCCGGTAATCCGTATTTGAC (site CATTGGACTGT)”, the “recombinant UMI read abundance (log10)” value worked out at 1.96.
On to “CATTGGACATGGACCGGTTTTCCCGGTAATCCGTATTTGAC (site GATTGGACTGT)”, for which the “recombinant UMI read abundance (log10)” value is 0.
Under “CATTGGACATGGACCGGTTTTCCCGGTAATCCGTATTTGAC (site TATTGGACTGT)” stands 0; under “CCAAAACCATGGACCGGTTTTCCCGGTAATCCGTATTTGAG (site CCAAAACCTCT)”, 0; under “CCAACTTCATGGACCGGTTTTCCCGGTAATCCGTATTTGTA (site CCAACTTCTTA)”, 0.301.
Turning to “CCAAGCGCATGGACCGGTTTTCCCGGTAATCCGTATTTGTA (site CCAAGCGCTTA)”, the “recombinant UMI read abundance (log10)” value stood at 1.3.
Under “CCAATCACATGGACCGGTTTTCCCGGTAATCCGTATTTGTT (site CCAATCACTAA)” stands 0.84.
Next, “CCACGAACATGGACCGGTTTTCCCGGTAATCCGTATTTGTC (site ACACGAACTGA)”: 0.
On to “CCACGAACATGGACCGGTTTTCCCGGTAATCCGTATTTGTC (site CCACGAACTGA)”, for which the “recombinant UMI read abundance (log10)” value amounted to 0.774.
With “CCACGAACATGGACCGGTTTTCCCGGTAATCCGTATTTGTC (site GCACGAACTGA)”, the “recombinant UMI read abundance (log10)” value worked out at 0.
Consider “CCACGAACATGGACCGGTTTTCCCGGTAATCCGTATTTGTC (site TCACGAACTGA)”, for which the “recombinant UMI read abundance (log10)” value amounted to 0.
For “CCAGCAGCATGGACCGGTTTTCCCGGTAATCCGTATTTGTC (site CCAGCAGCTGA)”, the “recombinant UMI read abundance (log10)” value was determined as 0.4.
Under “CCAGCATCATGGACCGGTTTTCCCGGTAATCCGTATTTGCT (site CCAGCATCTAG)” stands 0.0975; under “CCAGCATCATGGACCGGTTTTCCCGGTAATCCGTATTTGCT (site CGATCATCTAG)”, 0.
As for “CCAGCTGCATGGACCGGTTTTCCCGGTAATCCGTATTTGCC (site CCAGCTGCTGG)”, the “recombinant UMI read abundance (log10)” value was 1.26.
Next, “CCAGGACCATGGACCGGTTTTCCCGGTAATCCGTATTTGGG (site CAAGGACCTCC)”: 0.0304.
As for “CCAGGACCATGGACCGGTTTTCCCGGTAATCCGTATTTGGG (site CCAGGACCTCC)”, the “recombinant UMI read abundance (log10)” value was determined as 0.00761.
Next, “CCAGGACCATGGACCGGTTTTCCCGGTAATCCGTATTTGGG (site CGAGGACCTCC)”: 0; “CCAGGACCATGGACCGGTTTTCCCGGTAATCCGTATTTGGG (site CTAGGACCTCC)”: 0.00678; “CCAGGTCCATGGACCGGTTTTCCCGGTAATCCGTATTTGCA (site CCAGGTCCTTG)”: 0.421.
Next, “CCAGGTCCATGGACCGGTTTTCCCGGTAATCCGTATTTGCA (site CCCGGTCCTTG)”: 0; “CCAGGTCCATGGACCGGTTTTCCCGGTAATCCGTATTTGCA (site CCGGGTCCTTG)”: 0.
On to “CCAGGTCCATGGACCGGTTTTCCCGGTAATCCGTATTTGCA (site CCTGGTCCTTG)”, for which the “recombinant UMI read abundance (log10)” value was determined as 0.
In the case of “CCAGGTGCATGGACCGGTTTTCCCGGTAATCCGTATTTGAG (site CCAGGTGCTAT)”, the “recombinant UMI read abundance (log10)” value was 0.721.
